Source: patent publication US20060030537A1, “Ceramide kinase and uses thereof” (priority 2004, published 2006)

Key:
C-1-P levels = assay: Ceramide-1-phosphate levels by pulse-labeling with D-e-C6 NBD-ceramide in A549 cells; type: cell-based
Procedure: (§1) FIGS. 5A-5C. IL-1β and calcium ionophore increase ceramide-1-phosphate production and ceramide kinase activity. FIGS. 5A and 5B. The effect of IL-1 and A23187 on C-1-P levels and AA liberation. A549 cells (2×10^5) were labeled overnight with 10 μCi/mL [^3H]-arachidonic acid (10 nM), washed, and then treated with either 2.5 ng/mL of IL-1β (FIG. 5A) or 1 μg/mL of A23187 (FIG. 5B) for the indicated times. Two hours prior to Bligh-Dyer extraction, cells were chased with 20 μM of D-e-C6 NBD-ceramide (Matreya). At the appropriate times, media was taken for AA analysis, and lipids from the cells were extracted by the Bligh-Dyer method followed by analysis of NBD-C-1-P formation. Data are presented as % control of C-1-P levels (J) and AA release (B). Data are representative of three separate determinations on 2 separate occasions. FIG. 5C. IL-1β and calcium ionophore increase ceramide kinase activity. A549 cells (5×10^5) were treated with either 2.5 ng/mL of IL-1β for 3.5 hours or 1 μg/mL of A23187 for 5 minutes. Cells were then washed, lysed in assay buffer, and assayed for ceramide kinase activity. Data is presented as % control of ceramide kinase activity (Arbitrary densitometry units of fluorescent NBD-C-1-P produced/min/mg of total cellular protein). Data are representative of three separate determinations on 2 separate occasions.
Quantification of ceramide-1-phosphate levels by pulse-labeling with D-e-C6 NBD-ceramide: Two hours prior to Bligh-Dyer extraction, cells were chased with 20 μM of D-e-C6 NBD-ceramide (Matreya). At the appropriate times, lipids were extracted by the Bligh-Dyer method, analyzed for NBD-C-1-P formation using TLC analysis, and results normalized to total lipid phosphate as described (Perry, D. K., Bielawska, A., and Hannun, Y. A. (2000) Methods Enzymol. 312, 22-31).

A549 cells [1] = assay: Quantification of arachidonic acid (AA) release in A549 cells; type: cell-based; conditions: for AA release (lipid specificity): 1 μM lipid, 2 hours
Procedure: (§2) Cell Culture: A549 lung adenocarcinoma cells (epithelial-derived) were grown in low glucose DMEM (Invitrogen) supplemented with L-glutamine, 10% (v/v) fetal bovine serum (Invitrogen), 200 U/ml of penicillin G sodium, and 200 μg/ml of streptomycin sulfate. Cells were maintained under 80% confluency and standard incubator conditions (humidified atmosphere, 95% air, 5% CO2, 370 C). For treatment, cells were incubated for 2 hours in low glucose DMEM (Invitrogen) supplemented with L-glutamine, 2% (v/v) fetal bovine serum (Invitrogen), 200 U/ml of penicillin G sodium, and 200 μg/ml of streptomycin sulfate prior to the addition of agonist.
(§3) Quantification of arachidonic acid (AA) release: A549 cells (5×10^4) were labeled overnight with 5 μCi/mL [^3H]-AA (5 nM) (NEN). Cells were washed and incubated in DMEM supplemented with 2% fetal bovine serum for 2 hours. Following treatment, media was transferred to 1.5 mL polypropylene tubes, centrifuged at 10,000×g, and ^3H-AA cpm determined by scintillation counting. Results were controlled for equivalent number of cells quantified by MTT assay as described (Chalfant, C. E., Rathman, K., Pinkerman, R. L., Wood, R. E., Obeid, L. M., Ogretmen, B., and Hannun, Y. A. (2002) J. Biol. Chem. 277, 12587-12595) and by verification of total AA labeling by scintillation counting. For the experiments in FIG. 4, purified SMase D was obtained from Dr. Alfred H. Merrill, Jr., and SMase C (purified from Bacillus cereus) was obtained commercially from Sigma.
RNAi design and transfections: Knock-downs of ceramide kinase were performed essentially as described using sequence specific siRNA reagents (http:www.mpibpc.gwdg.de/abteilungen/100/105/sirna.html) (Lassus, P., Opitz-Araya, X., and Lazebnik, Y. (2002) Science 297, 1352-1354) using human ceramide kinase RNAi starting 142 nucleotides from start codon ([…]dTd (SEQ ID NO: 3) and […]dTd (SEQ ID NO:4)). All sequences were evaluated against the database using the NIH blast program to test for specificity (Xeragon, A Qiagen Company). A549 cells (3×10^4) were transfected with the 21-nucleotide duplexes using OligofectAMINE (Invitrogen) as recommended by the manufacturer. Following the 4 hour transfection, cells were treated and assayed for AA release or PGE2 synthesis at 26 hours post-transfection.

ceramide kinase = assay: Ceramide kinase assay on lysates of treated or transfected A549 cells; type: cell-based, human
Procedure: as §1
FIGS. 6A-6B. Ceramide kinase RNAi downregulates endogenous ceramide kinase activity and mRNA levels. FIG. 6A. The effect of ceramide kinase RNAi on endogenous ceramide kinase activity. […] Following the same procedure as outlined in FIG. 6A, total RNA was extracted and analyzed via logarithmic reverse-transcriptase polymerase chain reaction for human ceramide kinase and 18s ribosomal RNA. […]
Ceramide Kinase Assay: Ceramide kinase activity was measured as described previously with slight modifications (Bajjalieh, S., and Batchelor, R. (2001) Methods Enzymol. 311, 207-215). […] Following Bligh-Dyer extraction, lipids were separated by thin layer chromatography, and NBD-C-1-P was visualized/quantified by fluorescent phosphorimaging.

protein phosphatase 2A = assay: Inhibition of protein phosphatase 2A; type: biochemical
COX-2 = COX-2 expression by western immunoblotting; type: cell-based
A549 cells [2] = assay: Quantification of prostaglandin E2 synthesis in A549 cells (EIA); type: cell-based; conditions: 2.5 μM, only after 1 hour
Procedure: as §2
Quantification of prostaglandin E2 and thromboxane B2 synthesis: For measurement of PGE2 and TXB2 levels, aliquots of media were taken at indicated time points and assayed according to manufacturer's instructions using the prostaglandin E2 and thromboxane B2 monoclonal EIA Kit from Cayman Chemical. Briefly, media containing PGE2 or TXB2 competes with PGE2 or TXB2 acetylcholinesterase conjugate for a limited amount of monoclonal antibody. The antibody-PGE2 or -TXB2 conjugate binds to a goat-anti-mouse antibody previously attached to the 96-well plate. The plate is washed to remove unbound reagents and then the substrate for acetylcholinesterase is provided. […] Results were controlled for equivalent number of cells quantified by MTT assay. […]

protein phosphatase-1 = assay: Inhibition of protein phosphatase-1; type: biochemical
A549 cells [3] = assay: Quantification of thromboxane B2 synthesis in A549 cells (EIA); type: cell-based; conditions: 1 μM
Procedure: (§4) FIGS. 3A-3B. FIG. 3A. The effects of ceramide-1-phosphate on TXB2 synthesis. A549 cells (1×10^5) were treated with D-e-C16 ceramide-1-phosphate (1 μM) solubilized in 2% dodecane/98% ethanol (final concentration in treatments was 0.002% dodecane/0.098% ethanol (EtOH)) for the indicated times. The results are presented as % control of TXB2 controlled for equivalent number of cells by MTT assay. Data are representative of 3 separate determinations on 2 separate occasions. FIG. 3B. The effects of ceramide-1-phosphate on AA release and PGE2 synthesis in L929 fibroblasts. L929 cells (5×10^4) were labeled overnight with 5 μCi/mL [^3H]-arachidonic acid (5 nM). Cells were washed and placed in DMEM supplemented with 2% fetal bovine serum for two hours. Cells were then treated with 2.5 μM D-e-C16 ceramide-1-phosphate (solubilized in 98% ethanol/2% dodecane) for the indicated times. […]
(§5) Quantification of prostaglandin E2 and thromboxane B2 synthesis: For measurement of PGE2 and TXB2 levels, aliquots of media were taken at indicated time points and assayed according to manufacturer's instructions using the prostaglandin E2 and thromboxane B2 monoclonal EIA Kit from Cayman Chemical. […] Results were controlled for equivalent number of cells quantified by MTT assay.

L929 fibroblasts [4] = assay: PGE2 synthesis in L929 fibroblasts; type: cell-based; conditions: L929 fibroblasts that do not express COX-2
Procedure: as §4, §5

L929 fibroblasts [5] = assay: AA release in L929 fibroblasts; type: cell-based; conditions: 1 μM, after 1 hour
Procedure: as §4, with “hours.” for “hours. Cells were then treated with 2.5 μM D-e-C16 ceramide-1-phosphate (solubilized in 98% ethanol/2% dodecane) for the indicated times.”
as §3, with “Cells were washed and incubated in DMEM supplemented with 2% fetal bovine serum for 2 hours.” left out, “For the experiments in FIG. 4, purified SMase D was obtained from Dr. Alfred H. Merrill, Jr., and SMase C (purified from Bacillus cereus) was obtained commercially from Sigma.” left out

## CNc1ccc2oc(C[C@H]3O[C@@]4(CC[C@H]3C)O[C@H]([C@H](C)C(=O)c3ccc[nH]3)[C@H](C)C[C@H]4C)nc2c1C(=O)O [A23187]
C-1-P levels; 1 μg/mL, after 10 minutes
  maximal increase in C-1-P levels: approximately 4 fold
C-1-P levels; 1 μg/mL, within 5 minutes of treatment
  C-1-P levels: significant increase
A549 cells [1]; 1 μg/mL
  time to increased AA release: within minutes
Ceramide kinase; 1 μg/mL, 5 minutes
  increase of ceramide kinase activity: 216%

## CCCCCCCCCCCCC/C=C/[C@@H](O)[C@H](COP(=O)(O)O)NC(=O)CCCCCCCCCCCCCCC [C-1-P, D-erythro-C16 ceramide-1-phosphate]
Protein phosphatase 2A
  IC50: 0.05 µM
COX-2
  expression of COX-2: no effect
A549 cells [2]
  PGE2 synthesis: Increased
Protein phosphatase-1
  IC50: 0.05 µM
A549 cells [3]; after 2 hours
  increase of TXB2: 2.5 fold
A549 cells [3]; after 4 hours
  increase of TXB2: 11 fold
L929 fibroblasts [4]
  PGE2 synthesis/release: not observed
L929 fibroblasts [5]
  AA release over basal release: 225%
A549 cells [1]
  concentration as low as which induces a significant increase in AA release: 100 nM
  AA release (lipid specificity): induced significant AA release
A549 cells [1]; 2.5 μM, after 20 minutes
  maximal early increase in AA release: approximately 2 fold
A549 cells [1]; 2.5 μM, after 1 hour, following reuptake
  AA release: sustained increase
A549 cells [1]; 8 hours, read-out: EC50 of effect on AA release
  EC50: 0.4 µM

## CCCCCCCCCCCCC/C=C/[C@@H](O)[C@H](CO)NC(=O)CCCCCCCCCCCCCCC [CER, D-erythro C16 ceramide]
A549 cells [1]
  AA release (lipid specificity): small increase
A549 cells [1]; 8 hours
  AA release, long term treatment: no further increase

## CCCCCCCC/C=C\CCCCCCCC(=O)OC[C@H](COP(=O)(O)O)OC(=O)CCCCCCC/C=C\CCCCCCCC [PA, di-oleoyl phosphatidic acid]
A549 cells [1]
  AA release (lipid specificity): Only C-1-P induced significant AA release

## CCCCCCCCCCCCC/C=C/[C@@H](O)[C@@H](N)COP(=O)(O)O [S-1-P, D-erytho-sphingosine-1-phosphate]
A549 cells [1]
  AA release (lipid specificity): Only C-1-P induced significant AA release

## IL-1β
C-1-P levels; 2.5 ng/mL, after 4 hours
  increase in C-1-P levels: 242%
Ceramide kinase; 2.5 ng/mL, 3.5 hours
  increase of ceramide kinase activity: 187%

## di-oleoylglycerol [DAG]
A549 cells [1]
  AA release (lipid specificity): Only C-1-P induced significant AA release
